Measured values as given in doi:10.1101/2024.08.13.607785v1 (biorxiv, 2024).

What was measured:
Set-up in all cases: species or system mixed lysate of K562, MV4-11, THP-1, NCI-H1155
[1] = molecular target: Isoform 6 of Tyrosine-protein kinase ABL2 ; ABL2-6 ; P42684-6 (Homo sapiens, UniProt P42684); details: DIA-MS residual binding; binder
[2] = molecular target: Dual specificity testis-specific protein kinase 1 ; TESK1 ; Q15569 (Homo sapiens, UniProt Q15569); details: DIA-MS residual binding; binder
Chain of Dual specificity testis-specific protein kinase 1 ; TESK1 ; Q15569 (Q15569 whole entry): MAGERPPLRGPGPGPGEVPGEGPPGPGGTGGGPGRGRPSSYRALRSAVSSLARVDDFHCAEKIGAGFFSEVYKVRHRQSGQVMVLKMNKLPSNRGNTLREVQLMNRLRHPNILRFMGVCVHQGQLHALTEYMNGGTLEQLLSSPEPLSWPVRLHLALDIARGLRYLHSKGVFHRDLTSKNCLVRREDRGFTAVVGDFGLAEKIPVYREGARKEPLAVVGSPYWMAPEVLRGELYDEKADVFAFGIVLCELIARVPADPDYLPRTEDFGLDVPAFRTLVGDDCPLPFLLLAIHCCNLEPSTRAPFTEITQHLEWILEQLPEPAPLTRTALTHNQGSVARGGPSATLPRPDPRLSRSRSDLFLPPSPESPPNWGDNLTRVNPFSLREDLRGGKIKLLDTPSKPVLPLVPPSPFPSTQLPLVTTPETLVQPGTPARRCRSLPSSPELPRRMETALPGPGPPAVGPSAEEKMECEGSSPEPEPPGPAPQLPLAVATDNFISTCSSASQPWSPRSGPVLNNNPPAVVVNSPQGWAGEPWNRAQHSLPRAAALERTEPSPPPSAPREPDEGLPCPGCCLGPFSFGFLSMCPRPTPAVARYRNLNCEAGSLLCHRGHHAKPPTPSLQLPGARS

[3] = molecular target: T1, Ephrin type-B receptor 1 ; EPHB1 ; P54762 (Homo sapiens, UniProt P54762); details: DIA-MS residual binding; binder
T1 sequence (P54762 1-984): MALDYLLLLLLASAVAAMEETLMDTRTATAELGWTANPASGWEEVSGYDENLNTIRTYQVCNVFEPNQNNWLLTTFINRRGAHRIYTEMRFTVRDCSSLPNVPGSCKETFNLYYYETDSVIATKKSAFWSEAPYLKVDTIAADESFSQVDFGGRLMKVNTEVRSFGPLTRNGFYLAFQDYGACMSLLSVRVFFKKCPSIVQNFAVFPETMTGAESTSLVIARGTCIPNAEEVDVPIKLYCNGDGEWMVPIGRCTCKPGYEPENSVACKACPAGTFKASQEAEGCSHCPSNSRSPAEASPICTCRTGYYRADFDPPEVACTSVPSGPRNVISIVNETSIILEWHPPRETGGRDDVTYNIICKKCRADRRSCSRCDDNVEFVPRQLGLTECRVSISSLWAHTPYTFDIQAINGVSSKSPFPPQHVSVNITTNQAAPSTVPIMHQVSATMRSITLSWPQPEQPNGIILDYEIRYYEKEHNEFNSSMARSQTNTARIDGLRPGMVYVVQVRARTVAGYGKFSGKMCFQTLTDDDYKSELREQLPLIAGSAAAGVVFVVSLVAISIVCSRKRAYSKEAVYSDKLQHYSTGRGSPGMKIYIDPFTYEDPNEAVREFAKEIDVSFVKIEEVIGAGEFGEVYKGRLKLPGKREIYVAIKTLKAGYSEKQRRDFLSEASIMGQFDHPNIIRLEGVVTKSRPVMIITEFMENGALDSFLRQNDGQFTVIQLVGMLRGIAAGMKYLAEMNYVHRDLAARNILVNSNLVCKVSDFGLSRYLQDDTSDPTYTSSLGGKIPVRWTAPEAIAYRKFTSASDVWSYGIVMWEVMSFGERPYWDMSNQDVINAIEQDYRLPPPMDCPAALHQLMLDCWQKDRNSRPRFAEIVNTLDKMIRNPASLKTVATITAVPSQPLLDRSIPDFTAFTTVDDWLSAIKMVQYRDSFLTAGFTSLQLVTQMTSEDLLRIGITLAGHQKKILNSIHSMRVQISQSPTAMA

[4] = molecular target: Activin receptor type-1B ; ACVR1B ; P36896 (Homo sapiens, UniProt P36896); details: DIA-MS residual binding; binder
Chain of Activin receptor type-1B ; ACVR1B ; P36896 (P36896 whole entry, canonical isoform): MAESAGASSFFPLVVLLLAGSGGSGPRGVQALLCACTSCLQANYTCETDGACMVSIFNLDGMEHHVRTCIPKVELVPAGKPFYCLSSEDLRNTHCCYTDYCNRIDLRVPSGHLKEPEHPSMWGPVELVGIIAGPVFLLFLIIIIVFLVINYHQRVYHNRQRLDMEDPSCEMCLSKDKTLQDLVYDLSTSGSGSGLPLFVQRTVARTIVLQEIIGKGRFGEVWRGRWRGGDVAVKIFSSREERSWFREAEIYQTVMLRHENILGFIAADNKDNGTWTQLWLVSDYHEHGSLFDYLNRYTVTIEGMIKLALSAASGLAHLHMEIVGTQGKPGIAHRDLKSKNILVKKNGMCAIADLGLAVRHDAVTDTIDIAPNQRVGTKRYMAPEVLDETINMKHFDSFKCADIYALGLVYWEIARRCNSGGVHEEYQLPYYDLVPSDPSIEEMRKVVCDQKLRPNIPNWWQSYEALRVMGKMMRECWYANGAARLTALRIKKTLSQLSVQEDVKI

[5] = molecular target: Isoform 3 of Membrane-associated tyrosine- and threonine-specific cdc2 ; PKMYT1-3 ; Q99640-3 (Homo sapiens, UniProt Q99640); details: binder
Chain of Isoform 3 of Membrane-associated tyrosine- and threonine-specific cdc2 ; PKMYT1-3 ; Q99640-3 (Q99640 whole entry, canonical isoform, one chain of several): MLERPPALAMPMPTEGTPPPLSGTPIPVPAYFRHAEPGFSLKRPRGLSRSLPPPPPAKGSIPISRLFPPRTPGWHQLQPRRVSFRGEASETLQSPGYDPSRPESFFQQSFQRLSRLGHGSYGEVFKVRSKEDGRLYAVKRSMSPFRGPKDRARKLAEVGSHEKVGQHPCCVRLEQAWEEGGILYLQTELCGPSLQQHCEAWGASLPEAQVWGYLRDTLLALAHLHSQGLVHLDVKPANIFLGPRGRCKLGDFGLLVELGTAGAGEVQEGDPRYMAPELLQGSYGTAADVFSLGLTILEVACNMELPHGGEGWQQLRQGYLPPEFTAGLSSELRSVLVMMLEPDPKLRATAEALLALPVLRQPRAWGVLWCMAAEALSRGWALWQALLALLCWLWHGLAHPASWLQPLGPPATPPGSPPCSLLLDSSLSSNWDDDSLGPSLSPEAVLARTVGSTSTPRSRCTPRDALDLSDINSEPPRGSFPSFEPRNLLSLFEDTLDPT

[6] = molecular target: Ephrin type-A receptor 5 ; EPHA5 ; P54756 (Homo sapiens, UniProt P54756); details: DIA-MS residual binding; binder
Chain of Ephrin type-A receptor 5 ; EPHA5 ; P54756 (P54756 whole entry): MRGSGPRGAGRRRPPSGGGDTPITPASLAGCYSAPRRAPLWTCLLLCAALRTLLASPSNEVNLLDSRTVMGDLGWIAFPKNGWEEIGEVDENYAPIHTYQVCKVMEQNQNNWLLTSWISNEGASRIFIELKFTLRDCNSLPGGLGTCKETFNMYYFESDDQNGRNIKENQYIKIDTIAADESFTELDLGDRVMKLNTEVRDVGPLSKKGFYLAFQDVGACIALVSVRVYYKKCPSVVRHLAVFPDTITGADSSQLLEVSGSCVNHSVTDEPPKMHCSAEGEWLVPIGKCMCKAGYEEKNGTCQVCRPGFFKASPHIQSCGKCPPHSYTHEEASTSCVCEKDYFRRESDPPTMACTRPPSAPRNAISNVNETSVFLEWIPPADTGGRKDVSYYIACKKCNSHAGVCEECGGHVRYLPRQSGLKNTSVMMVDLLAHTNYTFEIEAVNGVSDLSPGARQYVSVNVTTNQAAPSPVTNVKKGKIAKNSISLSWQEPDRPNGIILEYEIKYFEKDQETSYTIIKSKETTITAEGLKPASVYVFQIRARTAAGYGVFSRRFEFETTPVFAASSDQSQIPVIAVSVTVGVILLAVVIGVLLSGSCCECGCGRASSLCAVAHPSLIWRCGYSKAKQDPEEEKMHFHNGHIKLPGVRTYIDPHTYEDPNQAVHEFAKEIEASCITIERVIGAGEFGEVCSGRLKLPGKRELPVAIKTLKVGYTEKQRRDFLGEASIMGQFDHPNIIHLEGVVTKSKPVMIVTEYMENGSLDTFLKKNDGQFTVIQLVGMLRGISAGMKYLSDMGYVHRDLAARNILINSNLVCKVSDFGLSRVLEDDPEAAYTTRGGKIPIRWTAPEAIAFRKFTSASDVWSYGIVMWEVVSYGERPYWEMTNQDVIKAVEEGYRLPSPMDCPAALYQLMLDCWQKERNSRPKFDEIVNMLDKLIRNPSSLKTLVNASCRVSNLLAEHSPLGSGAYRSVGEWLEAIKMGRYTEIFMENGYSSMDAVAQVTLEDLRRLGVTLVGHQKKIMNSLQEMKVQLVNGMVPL

[7] = molecular target: Serine/threonine-protein kinase SIK2 ; SIK2 ; Q9H0K1 (Homo sapiens, UniProt Q9H0K1); details: DIA-MS residual binding; binder
Chain of Serine/threonine-protein kinase SIK2 ; SIK2 ; Q9H0K1 (Q9H0K1 whole entry, one chain of several): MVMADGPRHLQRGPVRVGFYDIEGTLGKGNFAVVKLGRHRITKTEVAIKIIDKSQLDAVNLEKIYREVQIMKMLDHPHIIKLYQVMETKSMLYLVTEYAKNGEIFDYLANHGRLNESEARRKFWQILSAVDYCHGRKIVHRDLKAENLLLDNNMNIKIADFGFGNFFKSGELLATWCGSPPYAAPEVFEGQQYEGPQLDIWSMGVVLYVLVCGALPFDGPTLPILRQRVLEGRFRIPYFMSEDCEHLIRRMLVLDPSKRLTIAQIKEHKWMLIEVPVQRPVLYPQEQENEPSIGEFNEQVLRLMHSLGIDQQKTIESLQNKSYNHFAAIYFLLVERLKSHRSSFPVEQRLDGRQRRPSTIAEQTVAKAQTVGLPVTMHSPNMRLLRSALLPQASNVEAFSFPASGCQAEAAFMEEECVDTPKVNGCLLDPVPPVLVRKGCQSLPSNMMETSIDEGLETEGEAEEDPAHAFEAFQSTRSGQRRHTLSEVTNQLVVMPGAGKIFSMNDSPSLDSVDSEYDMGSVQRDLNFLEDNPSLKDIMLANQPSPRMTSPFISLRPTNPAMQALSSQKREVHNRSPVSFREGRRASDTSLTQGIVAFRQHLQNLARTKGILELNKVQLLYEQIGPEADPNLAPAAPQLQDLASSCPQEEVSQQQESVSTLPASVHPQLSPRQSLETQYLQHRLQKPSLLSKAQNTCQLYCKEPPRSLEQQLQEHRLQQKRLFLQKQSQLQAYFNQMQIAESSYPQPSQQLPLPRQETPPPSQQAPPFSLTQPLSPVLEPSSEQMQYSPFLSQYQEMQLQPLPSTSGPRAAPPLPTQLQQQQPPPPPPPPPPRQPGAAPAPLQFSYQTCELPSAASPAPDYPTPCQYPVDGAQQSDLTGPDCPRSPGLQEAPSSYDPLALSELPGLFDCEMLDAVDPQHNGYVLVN

[8] = molecular target: Integrin-linked protein kinase ; ILK ; Q13418 (Homo sapiens, UniProt Q13418); details: DIA-MS residual binding; binder
Chain of Integrin-linked protein kinase ; ILK ; Q13418 (Q13418 whole entry): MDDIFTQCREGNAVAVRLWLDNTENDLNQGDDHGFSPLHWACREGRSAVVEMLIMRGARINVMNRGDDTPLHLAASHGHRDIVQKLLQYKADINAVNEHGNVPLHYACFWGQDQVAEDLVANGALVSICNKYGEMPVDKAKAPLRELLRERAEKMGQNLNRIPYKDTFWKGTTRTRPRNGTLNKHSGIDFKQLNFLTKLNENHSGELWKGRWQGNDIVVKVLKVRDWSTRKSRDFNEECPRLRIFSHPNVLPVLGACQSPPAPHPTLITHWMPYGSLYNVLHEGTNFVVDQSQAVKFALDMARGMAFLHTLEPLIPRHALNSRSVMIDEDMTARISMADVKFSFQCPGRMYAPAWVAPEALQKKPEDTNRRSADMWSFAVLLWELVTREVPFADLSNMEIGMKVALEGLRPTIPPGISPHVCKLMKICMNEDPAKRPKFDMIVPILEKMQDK

DIA-MS / % Intensity (30 µM/DMSO) [1]: 0.2688%
DIA-MS / % Intensity (30 µM/DMSO) [2]: 14.82%
DIA-MS / % Intensity (30 µM/DMSO) [3]: 6.728%
DIA-MS / % Intensity (30 µM/DMSO) [4]: 38.22%
DIA-MS / % Intensity (30 µM/DMSO) [5]: 30.34%
DIA-MS / % Intensity (30 µM/DMSO) [6]: 0.4604%
DIA-MS / % Intensity (30 µM/DMSO) [7]: 2.882%
DIA-MS / % Intensity (30 µM/DMSO) [8]: 38.96%
Compound: Cc1nc(Nc2ncc(C(=O)Nc3c(C)cccc3Cl)s2)cc(N2CCN(CCO)CC2)n1 [dasatinib]
